In paper PMC8288134, “Synthesis, potential antitumor activity, cell cycle analysis, and multitarget mechanisms of novel hydrazones incorporating a 4-methylsulfonylbenzene scaffold: a molecular docking study” (Journal of Enzyme Inhibition and Medicinal Chemistry, 2021):
Where two headings read alike, the source gives them in different places.

Experiments:
A549/ATCC [1] = tested on: A549/ATCC; parameters: method as in https://dtp.cancer.gov/dtpstandard/dwindex/index.jsp; details: reference drugs, ref https://dtp.cancer.gov/dtpstandard/dwindex/index.jsp; cited from earlier work
HCC-2998 [2] = tested on: HCC-2998; parameters: method as in https://dtp.cancer.gov/dtpstandard/dwindex/index.jsp; details: reference drugs, ref https://dtp.cancer.gov/dtpstandard/dwindex/index.jsp; cited from earlier work
SW-620 = tested on: SW-620; parameters: method as in https://dtp.cancer.gov/dtpstandard/dwindex/index.jsp; details: reference drugs, ref https://dtp.cancer.gov/dtpstandard/dwindex/index.jsp; cited from earlier work
SF-268 = tested on: SF-268; parameters: method as in https://dtp.cancer.gov/dtpstandard/dwindex/index.jsp; details: reference drugs, ref https://dtp.cancer.gov/dtpstandard/dwindex/index.jsp; cited from earlier work
SF-539 = tested on: SF-539; parameters: method as in https://dtp.cancer.gov/dtpstandard/dwindex/index.jsp; details: reference drugs, ref https://dtp.cancer.gov/dtpstandard/dwindex/index.jsp; cited from earlier work
SNB-19 = tested on: SNB-19; parameters: method as in https://dtp.cancer.gov/dtpstandard/dwindex/index.jsp; details: reference drugs, ref https://dtp.cancer.gov/dtpstandard/dwindex/index.jsp; cited from earlier work
SNB-75 = tested on: SNB-75; parameters: method as in https://dtp.cancer.gov/dtpstandard/dwindex/index.jsp; details: reference drugs, ref https://dtp.cancer.gov/dtpstandard/dwindex/index.jsp; cited from earlier work
MALME-3M [3] = tested on: MALME-3M; parameters: method as in https://dtp.cancer.gov/dtpstandard/dwindex/index.jsp; details: reference drugs, ref https://dtp.cancer.gov/dtpstandard/dwindex/index.jsp; cited from earlier work
MDA-MB-435 [4] = tested on: MDA-MB-435; parameters: method as in https://dtp.cancer.gov/dtpstandard/dwindex/index.jsp; details: reference drugs, ref https://dtp.cancer.gov/dtpstandard/dwindex/index.jsp; cited from earlier work
SK-MEL-5 [5] = tested on: SK-MEL-5; parameters: method as in https://dtp.cancer.gov/dtpstandard/dwindex/index.jsp; details: reference drugs, ref https://dtp.cancer.gov/dtpstandard/dwindex/index.jsp; cited from earlier work
NCI/ADR-RES = tested on: NCI/ADR-RES; parameters: method as in https://dtp.cancer.gov/dtpstandard/dwindex/index.jsp; details: reference drugs, ref https://dtp.cancer.gov/dtpstandard/dwindex/index.jsp; cited from earlier work
UO-31 = tested on: UO-31; parameters: method as in https://dtp.cancer.gov/dtpstandard/dwindex/index.jsp; details: reference drugs, ref https://dtp.cancer.gov/dtpstandard/dwindex/index.jsp; cited from earlier work
DU-145 = tested on: DU-145; parameters: method as in https://dtp.cancer.gov/dtpstandard/dwindex/index.jsp; details: reference drugs, ref https://dtp.cancer.gov/dtpstandard/dwindex/index.jsp; cited from earlier work
HS 578 T = tested on: HS 578 T; parameters: method as in https://dtp.cancer.gov/dtpstandard/dwindex/index.jsp; details: reference drugs, ref https://dtp.cancer.gov/dtpstandard/dwindex/index.jsp; cited from earlier work
T-47D = tested on: T-47D; parameters: method as in https://dtp.cancer.gov/dtpstandard/dwindex/index.jsp; details: reference drugs, ref https://dtp.cancer.gov/dtpstandard/dwindex/index.jsp; cited from earlier work
K-562 = experiment: NCI antitumor screen (SRB); type: cell-based; details: Homo sapiens
SR = experiment: NCI antitumor screen (SRB); type: cell-based; details: Homo sapiens, one dose 10 µM, read-out: Growth inhibition percentage (GI%)
A549/ATCC [6] = experiment: NCI antitumor screen (SRB); type: cell-based; details: Homo sapiens, one dose 10 µM, read-out: Growth inhibition percentage (GI%)
NCI-H460 = experiment: NCI antitumor screen (SRB); type: cell-based; details: Homo sapiens, one dose 10 µM, read-out: Growth inhibition percentage (GI%)
COLO 205 = experiment: NCI antitumor screen (SRB); type: cell-based; details: Homo sapiens, one dose 10 µM, read-out: Growth inhibition percentage (GI%)
HCC-2998 [7] = experiment: NCI antitumor screen (SRB); type: cell-based; details: Homo sapiens, one dose 10 µM, read-out: Growth inhibition percentage (GI%)
SF-295 = experiment: NCI antitumor screen (SRB); type: cell-based; details: Homo sapiens, one dose 10 µM, read-out: Growth inhibition percentage (GI%)
MALME-3M [8] = experiment: NCI antitumor screen (SRB); type: cell-based; details: Homo sapiens, one dose 10 µM, read-out: Growth inhibition percentage (GI%)
MDA-MB-435 [9] = experiment: NCI antitumor screen (SRB); type: cell-based; details: Homo sapiens, one dose 10 µM, read-out: Growth inhibition percentage (GI%)
SK-MEL-2 = experiment: NCI antitumor screen (SRB); type: cell-based; details: Homo sapiens
SK-MEL-5 [10] = experiment: NCI antitumor screen (SRB); type: cell-based, human; details: Homo sapiens; SK-MEL-5; one dose 10 µM; read-out: Growth inhibition percentage (GI%)
UACC-62 = experiment: NCI antitumor screen (SRB); type: cell-based; details: Homo sapiens, one dose 10 µM, read-out: Growth inhibition percentage (GI%)
IGROV1 = experiment: NCI antitumor screen (SRB); type: cell-based; details: Homo sapiens, IGROV-1, one dose 10 µM, read-out: Growth inhibition percentage (GI%)
RXF 393 = experiment: NCI antitumor screen (SRB); type: cell-based; details: Homo sapiens, one dose 10 µM, read-out: Growth inhibition percentage (GI%)
BT-549 = experiment: NCI antitumor screen (SRB); type: cell-based; details: Homo sapiens, one dose 10 µM, read-out: Growth inhibition percentage (GI%)
EGFR = EGFR (Homo sapiens, UniProt P00533); experiment: biochemical; details: read-out: IC50 EGFR Inhibition
Text: (§1) In vitro luminescent EGFR tyrosine kinase assay using Kinase-Glo® MAX as a detection reagent, and In vitro HER2 tyrosine kinase assay using DP‐Glo™ reagent that measures ADP formed from a kinase reaction, this luminescent signal positively correlates with ADP amount and kinase activity. […]
(§2) 2.1.5. EGFR and Her2 assays
(§3) In vitro luminescent EGFR tyrosine kinase assay, using Kinase-Glo® MAX as a detection reagent, and In vitro HER2 tyrosine kinase assay, using DP‐Glo™ reagent that measures the adenosine diphosphate (ADP) formed from a kinase reaction, were performed; this luminescent signal positively correlates with ADP amount and kinase activity. In 17 μl of distilled water, 6 μl of Kinase assay buffer and 1 μl ATP and 1 μl PTK substrate were mixed (master mixture). In every well, mix 20 μl of the master mixture and 5 μl of Inhibitor solution (Test Inhibitor) for positive control, and use 5 μl of the same solution without inhibitor (Inhibitor buffer) as the blank solution; add 20 μl of diluted EGFR or Her2 enzyme and incubate at 30°C for 40 min. Add 50 μl of Kinase-Glo Max reagent to each well, cover the plate with aluminum foil and incubate the plate at room temperature for 15 min. Afterward, measure luminescence using the microplate reader. “Blank” value is subtracted from all readings. […]

HER2 = HER2 (Homo sapiens, UniProt P04626); experiment: biochemical; details: read-out: IC50 HER2 Inhibition
Text: as §1, §2, §3

[11] = K562, read-out: Growth inhibition percentage (GI%)
[12] = SK-MEL-2, read-out: Growth inhibition percentage (GI%)

Chain of EGFR (P00533 25-1210): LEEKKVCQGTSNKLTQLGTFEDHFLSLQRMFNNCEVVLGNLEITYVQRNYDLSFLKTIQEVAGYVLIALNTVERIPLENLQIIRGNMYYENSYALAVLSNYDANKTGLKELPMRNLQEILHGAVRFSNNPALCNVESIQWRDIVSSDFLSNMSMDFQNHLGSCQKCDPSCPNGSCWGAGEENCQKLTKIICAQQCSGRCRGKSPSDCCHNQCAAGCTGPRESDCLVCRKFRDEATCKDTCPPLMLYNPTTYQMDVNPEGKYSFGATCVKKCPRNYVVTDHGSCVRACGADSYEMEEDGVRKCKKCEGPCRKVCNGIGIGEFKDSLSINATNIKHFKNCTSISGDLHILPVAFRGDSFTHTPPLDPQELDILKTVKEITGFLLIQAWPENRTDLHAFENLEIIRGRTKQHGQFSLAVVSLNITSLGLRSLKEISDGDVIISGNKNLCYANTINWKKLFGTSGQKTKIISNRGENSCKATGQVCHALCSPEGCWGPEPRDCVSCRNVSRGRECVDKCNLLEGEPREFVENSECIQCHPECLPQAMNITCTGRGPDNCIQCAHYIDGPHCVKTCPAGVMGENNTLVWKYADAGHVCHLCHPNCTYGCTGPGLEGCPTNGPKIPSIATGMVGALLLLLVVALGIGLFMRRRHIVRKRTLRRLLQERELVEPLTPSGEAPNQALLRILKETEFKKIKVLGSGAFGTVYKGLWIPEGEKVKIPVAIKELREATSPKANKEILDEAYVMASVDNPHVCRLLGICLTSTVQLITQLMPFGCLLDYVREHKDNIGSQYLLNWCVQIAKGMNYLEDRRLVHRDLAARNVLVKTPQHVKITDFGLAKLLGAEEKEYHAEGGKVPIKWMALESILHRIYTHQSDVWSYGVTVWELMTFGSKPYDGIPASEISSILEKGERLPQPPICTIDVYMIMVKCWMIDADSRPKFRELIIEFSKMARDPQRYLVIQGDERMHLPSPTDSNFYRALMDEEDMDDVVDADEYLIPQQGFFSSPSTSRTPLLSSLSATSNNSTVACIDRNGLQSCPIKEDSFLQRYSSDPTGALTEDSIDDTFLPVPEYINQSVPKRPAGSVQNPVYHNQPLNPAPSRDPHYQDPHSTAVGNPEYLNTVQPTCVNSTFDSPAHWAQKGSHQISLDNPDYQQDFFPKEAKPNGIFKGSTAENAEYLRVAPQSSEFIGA
Chain of HER2 (P04626 23-1255): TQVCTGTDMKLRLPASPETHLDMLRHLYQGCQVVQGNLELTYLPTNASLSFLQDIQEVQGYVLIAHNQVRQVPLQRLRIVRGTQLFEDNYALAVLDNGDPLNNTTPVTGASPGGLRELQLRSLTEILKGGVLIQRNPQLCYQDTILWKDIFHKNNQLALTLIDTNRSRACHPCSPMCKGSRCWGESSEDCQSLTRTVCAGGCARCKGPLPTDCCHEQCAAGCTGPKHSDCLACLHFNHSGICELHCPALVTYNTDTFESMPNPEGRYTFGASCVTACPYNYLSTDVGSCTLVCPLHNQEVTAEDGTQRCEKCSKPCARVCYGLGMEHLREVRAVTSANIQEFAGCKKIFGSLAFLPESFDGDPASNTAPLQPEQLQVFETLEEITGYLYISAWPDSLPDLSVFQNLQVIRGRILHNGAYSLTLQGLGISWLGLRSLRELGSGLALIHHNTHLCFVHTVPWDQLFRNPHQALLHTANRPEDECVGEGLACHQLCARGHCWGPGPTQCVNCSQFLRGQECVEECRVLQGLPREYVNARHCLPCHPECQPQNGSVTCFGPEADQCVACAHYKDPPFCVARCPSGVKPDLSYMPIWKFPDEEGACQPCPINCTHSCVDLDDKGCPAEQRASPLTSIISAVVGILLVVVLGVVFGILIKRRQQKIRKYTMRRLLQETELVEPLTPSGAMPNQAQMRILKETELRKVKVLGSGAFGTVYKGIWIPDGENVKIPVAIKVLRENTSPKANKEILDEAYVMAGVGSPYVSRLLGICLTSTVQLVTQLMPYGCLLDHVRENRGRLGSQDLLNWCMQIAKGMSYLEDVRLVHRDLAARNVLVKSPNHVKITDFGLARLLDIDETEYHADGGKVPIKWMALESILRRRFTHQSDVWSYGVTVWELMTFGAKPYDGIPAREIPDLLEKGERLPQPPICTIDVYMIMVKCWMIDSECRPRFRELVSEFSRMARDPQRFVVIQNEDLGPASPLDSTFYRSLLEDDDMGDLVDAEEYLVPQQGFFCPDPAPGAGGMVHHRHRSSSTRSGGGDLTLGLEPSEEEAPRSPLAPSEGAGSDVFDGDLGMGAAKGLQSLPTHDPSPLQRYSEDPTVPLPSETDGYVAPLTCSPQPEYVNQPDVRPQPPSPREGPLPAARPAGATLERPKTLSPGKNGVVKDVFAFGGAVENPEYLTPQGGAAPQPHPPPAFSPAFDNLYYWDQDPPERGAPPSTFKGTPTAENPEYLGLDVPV

| Compound | inhibition at 10 µM (SR) [%] | inhibition at 10 µM (A549/ATCC [6]) [%] | inhibition at 10 µM (NCI-H460) [%] | inhibition at 10 µM (COLO 205) [%] | inhibition at 10 µM (HCC-2998 [7]) [%] | inhibition at 10 µM (SF-295) [%] | inhibition at 10 µM (MALME-3M [8]) [%] | inhibition at 10 µM (MDA-MB-435 [9]) [%] | inhibition at 10 µM (SK-MEL-5 [10]) [%] | inhibition at 10 µM (UACC-62) [%] | inhibition at 10 µM (IGROV1) [%] | inhibition at 10 µM (RXF 393) [%] | inhibition at 10 µM (BT-549) [%] | inhibition at 10 µM (K-562; [11]) [%] | inhibition at 10 µM (SK-MEL-2; [12]) [%] | IC50 (EGFR) [µM] | IC50 (HER2) [µM] | also measured |
| --- | --- | --- | --- | --- | --- | --- | --- | --- | --- | --- | --- | --- | --- | --- | --- | --- | --- | --- |
| Cc1ccc(-c2cc(C(F)(F)F)nn2-c2ccc(S(N)(=O)=O)cc2)cc1 [Celecoxib, celecoxib] | – | – | – | – | – | – | – | – | – | – | – | – | – | – | – | – | – | GI50 (A549/ATCC [1]): 15.8 µM; GI50 (HCC-2998 [2]): 15.8 µM; GI50 (SW-620): 15.8 µM; GI50 (SF-268): 15.8 µM; GI50 (SF-539): 19.9 µM; GI50 (SNB-19): 19.9 µM; GI50 (SNB-75): 15.8 µM; GI50 (MALME-3M [3]): 19.9 µM; GI50 (MDA-MB-435 [4]): 15.8 µM; GI50 (SK-MEL-5 [5]): 15.8 µM; GI50 (NCI/ADR-RES): 15.8 µM; GI50 (UO-31): 15.8 µM; GI50 (DU-145): 15.8 µM; GI50 (HS 578 T): 19.9 µM; GI50 (T-47D): 15.8 µM |
| O=c1[nH]cc(F)c(=O)[nH]1 [Compound 5-Fu, 5-fluorouracil, reference compound] | 75.2 | 65.8 | 87 | 59.8 | > 100 | 30.9 | 41.8 | 63.4 | 66.3 | 60.3 | 48.8 | 65.7 | 62.2 | – | – | – | – | inhibition at 10 µM (K-562; K562, K-562, one dose 10 µM, read-out: Growth inhibition percentage (GI%)): 57.7%; inhibition at 10 µM (SK-MEL-2; SK-MEL-2, one dose 10 µM, read-out: Growth inhibition percentage (GI%)): < 10% |
| CS(=O)(=O)c1ccc(C(=O)NN=Cc2cccc3ccccc23)cc1 [Compound 6, 4-(Methylsulfonyl)-N'-(naphthalen-1-ylmethylene)benzohydrazide] | 67.5 | 58.7 | 33.2 | 14.3 | 15.5 | 24 | 30.3 | 82.9 | 32.8 | 38.4 | 36.8 | < 10 | 12.4 | 72.2 | 52.3 | 0.26 ± 0.09 | 0.35 ± 0.01 | – |
| Cc1ccc(C=NNC(=O)c2ccc(S(C)(=O)=O)cc2)cc1 [Compound 9, N'-(4-Methylbenzylidene)-4-(methylsulfonyl)benzohydrazide] | 43.8 | 12.7 | < 10 | < 10 | < 10 | < 10 | 15.2 | 47.5 | 13.5 | 19.1 | 12.3 | < 10 | < 10 | 44.1 | 19.8 | 0.77 ± 0.03 | 0.41 ± 0.01 | – |
